Our source for the IC50 values is patent publication US20240199558A1, “2,4,6-TRISUBSTITUTED 1,3,5-TRIAZINES AS MODULATORS OF CX3CR1” (ASTRAZENECA AB, priority 2022, published 2024).

SMILES strings stand for the structures. pIC50: −log10 of the molar value.

This test deals with CX3CR1 (Homo sapiens (Human), UniProt P49238). The test is described as follows: hCX3CR1 [3H]-AZD8797 competitive binding assay (filter). Conditions: CHO-hCX3CR1 membranes, 2 nM [3H]-AZD8797. In outline:
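Filtration radioligand displacement assay: competitor titrations compete with 2 nM [3H]-AZD8797 for membranes from CHO cells expressing hCX3CR1 (9 μg/well). Incubation was 2 h at room temperature in HEPES pH 7.4 with MgCl2, CaCl2, 0.5% BSA and 1% DMSO. Filters were washed with ice-cold high-salt (500 mM NaCl) buffer, and retained radioactivity was scintillation-counted.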

Sequence of CX3CR1 (P49238 whole entry): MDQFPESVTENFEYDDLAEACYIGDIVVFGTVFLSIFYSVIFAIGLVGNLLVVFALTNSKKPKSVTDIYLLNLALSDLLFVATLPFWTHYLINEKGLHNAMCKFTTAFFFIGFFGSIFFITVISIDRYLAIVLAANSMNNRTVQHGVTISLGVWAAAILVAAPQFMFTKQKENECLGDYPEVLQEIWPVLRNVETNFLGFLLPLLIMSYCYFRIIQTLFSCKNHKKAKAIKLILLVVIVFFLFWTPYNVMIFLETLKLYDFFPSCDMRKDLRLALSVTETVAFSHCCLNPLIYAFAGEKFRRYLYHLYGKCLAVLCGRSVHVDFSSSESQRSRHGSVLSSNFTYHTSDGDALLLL

The molecule `CC(C)C[C@H](CO)Nc1nc(CC(C)c2cc(O)c3c(c2)CCCC3)nc(NS(C)(=O)=O)n1` (some centres unmarked) [Example 104] gave a pIC50 of 7.42.
The molecule `CC(C)C[C@H](CO)Nc1nc(CC(C)c2cccc(C3COC3)c2)nc(NS(C)(=O)=O)n1` (stereo partly drawn) [Example 105, N-(4-(((R)-1-Hydroxy-4-methylpentan-2-yl)amino)-6-(2-(3-(oxetan-3-yl)phenyl)propyl)-1,3,5-triazin-2-yl)methanesulfonamide] gave a pIC50 of 6.91.
For `Cc1c2ccc(C(C)Cc3nc(N[C@@H](CO)CC(C)C)nc(NS(C)(=O)=O)n3)cc2nn1C` (stereo partly drawn) [Example 106, N-(4-(2-(2,3-Dimethyl-2H-indazol-6-yl)propyl)-6-(((R)-1-hydroxy-4-methylpentan-2-yl)amino)-1,3,5-triazin-2-yl)methanesulfonamide] the value was 7.62; for `CC(C)C[C@H](CO)Nc1nc(CC(C)c2cc(Cl)ccc2O)nc(NS(C)(=O)=O)n1` (stereo partly drawn) [Example 107, N-(4-(2-(5-Chloro-2-hydroxyphenyl)propyl)-6-(((R)-1-hydroxy-4-methylpentan-2-yl)amino)-1,3,5-triazin-2-yl)methanesulfonamide], 6.95.
In the case of `CC(C)C[C@H](CO)Nc1nc(CC(C)c2ccc3c(c2)OCO3)nc(NS(C)(=O)=O)n1` (stereo partly drawn) [Example 108, N-(4-(2-(Benzo[d][1,3]dioxol-5-yl)propyl)-6-(((R)-1-hydroxy-4-methylpentan-2-yl)amino)-1,3,5-triazin-2-yl)methanesulfonamide], the pIC50 was 7.24.
For `CC(C)C[C@H](CO)Nc1nc(CC(C)c2cccc3c(=O)n(C)cnc23)nc(NS(C)(=O)=O)n1` (stereo partly drawn) [Example 109, N-(4-(((R)-1-Hydroxy-4-methylpentan-2-yl)amino)-6-(2-(3-methyl-4-oxo-3,4-dihydroquinazolin-8-yl)propyl)-1,3,5-triazin-2-yl)methanesulfonamide] the value was 7.08; for `CC(C)C[C@H](CO)Nc1nc(CC(C)c2cc(F)c(CO)c(F)c2)nc(NS(C)(=O)=O)n1` (stereo partly drawn) [Example 110, N-(4-(2-(3,5-Difluoro-4-(hydroxymethyl)phenyl)propyl)-6-(((R)-1-hydroxy-4-methylpentan-2-yl)amino)-1,3,5-triazin-2-yl)methanesulfonamide], 7.47; for `Cc1cc(C(C)Cc2nc(N[C@@H](CO)CC(C)C)nc(NS(C)(=O)=O)n2)ccc1F` (stereo partly drawn) [Example 111, N-(4-(2-(4-Fluoro-3-methylphenyl)propyl)-6-(((R)-1-hydroxy-4-methylpentan-2-yl)amino)-1,3,5-triazin-2-yl)methanesulfonamide], 6.41.
The result for `CC(C)C[C@H](CO)Nc1nc(CC(C)c2ccc(N)cc2)nc(NS(C)(=O)=O)n1` (stereo partly drawn) [Example 112, N-(4-(2-(4-Aminophenyl)propyl)-6-(((R)-1-hydroxy-4-methylpentan-2-yl)amino)-1,3,5-triazin-2-yl)methanesulfonamide] reads 7.54; that for `COc1ccc(C(C)Cc2nc(N[C@@H](CO)CC(C)C)nc(NS(C)(=O)=O)n2)cc1` (stereo partly drawn) [Example 113, N-(4-(((R)-1-Hydroxy-4-methylpentan-2-yl)amino)-6-(2-(4-methoxyphenyl)propyl)-1,3,5-triazin-2-yl)methanesulfonamide], 6.74.
For `Cc1ccc(C(C)Cc2nc(N[C@@H](CO)CC(C)C)nc(NS(C)(=O)=O)n2)cc1N` (stereo partly drawn) [Example 114, N-(4-(2-(3-Amino-4-methylphenyl)propyl)-6-(((R)-1-hydroxy-4-methylpentan-2-yl)amino)-1,3,5-triazin-2-yl)methanesulfonamide] the value was 7.35.
With `CC(C)C[C@H](CO)Nc1nc(CC(C)c2ccc(OCCN3CCOCC3)cc2)nc(NS(C)(=O)=O)n1` (stereo partly drawn) [Example 115, N-(4-(((R)-1-Hydroxy-4-methylpentan-2-yl)amino)-6-(2-(4-(2-morpholinoethoxy)phenyl)propyl)-1,3,5-triazin-2-yl)methanesulfonamide], the pIC50 is 6.80.
The result for `CC(C)C[C@H](CO)Nc1nc(CC(C)c2ccc(C(=O)N(C)C)c(F)c2)nc(NS(C)(=O)=O)n1` (stereo partly drawn) [Example 116, 2-Fluoro-4-(1-(4-(((R)-1-hydroxy-4-methylpentan-2-yl)amino)-6-(methylsulfonamido)-1,3,5-triazin-2-yl)propan-2-yl)-N,N-dimethylbenzamide] reads 6.55; that for `CC(C)C[C@H](CO)Nc1nc(CC(C)c2cnc3c(ccn3C)c2)nc(NS(C)(=O)=O)n1` (stereo partly drawn) [Example 117, N-(4-(((R)-1-Hydroxy-4-methylpentan-2-yl)amino)-6-(2-(1-methyl-1H-pyrrolo[2,3-b]pyridin-5-yl)propyl)-1,3,5-triazin-2-yl)methanesulfonamide], 7.11; that for `CC(C)C[C@H](CO)Nc1nc(CC(C)c2ccc(N3CCOCC3=O)cc2)nc(NS(C)(=O)=O)n1` (stereo partly drawn) [Example 118, N-(4-(((R)-1-Hydroxy-4-methylpentan-2-yl)amino)-6-(2-(4-(3-oxomorpholino)phenyl)propyl)-1,3,5-triazin-2-yl)methanesulfonamide], 6.82.
For `CCOc1ccc(C(C)Cc2nc(N[C@@H](CO)CC(C)C)nc(NS(C)(=O)=O)n2)cc1F` (some centres unmarked) [Example 119] the value was 6.47.
In turn, `CNC(=O)c1ccc(C(C)Cc2nc(N[C@@H](CO)CC(C)C)nc(NS(C)(=O)=O)n2)cc1F` (stereo partly drawn) [Example 120, 2-Fluoro-4-(1-(4-(((R)-1-hydroxy-4-methylpentan-2-yl)amino)-6-(methylsulfonamido)-1,3,5-triazin-2-yl)propan-2-yl)-N-methylbenzamide] gave a pIC50 of 6.64.
For `CC(C)C[C@H](CO)Nc1nc(CC(C)c2cccc(N)c2)nc(NS(C)(=O)=O)n1` (stereo partly drawn) [Example 121, N-(4-(2-(3-Aminophenyl)propyl)-6-(((R)-1-hydroxy-4-methylpentan-2-yl)amino)-1,3,5-triazin-2-yl)methanesulfonamide] the value was 7.68; for `CC(C)C[C@H](CO)Nc1nc(CC(C)c2ccc(F)c(CO)c2)nc(NS(C)(=O)=O)n1` (stereo partly drawn) [Example 122, N-(4-(2-(4-Fluoro-3-(hydroxymethyl)phenyl)propyl)-6-(((R)-1-hydroxy-4-methylpentan-2-yl)amino)-1,3,5-triazin-2-yl)methanesulfonamide], 6.92; for `CCOc1ccc(C(C)Cc2nc(N[C@@H](CO)CC(C)C)nc(NS(C)(=O)=O)n2)cc1` (stereo partly drawn) [Example 123, N-(4-(2-(4-Ethoxyphenyl)propyl)-6-(((R)-1-hydroxy-4-methylpentan-2-yl)amino)-1,3,5-triazin-2-yl)methanesulfonamide], 6.47.
The result for `CC(C)C[C@H](CO)Nc1nc(CC(C)c2ccc3ncn(C)c(=O)c3c2)nc(NS(C)(=O)=O)n1` (stereo partly drawn) [Example 124, N-(4-(((R)-1-Hydroxy-4-methylpentan-2-yl)amino)-6-(2-(3-methyl-4-oxo-3,4-dihydroquinazolin-6-yl)propyl)-1,3,5-triazin-2-yl)methanesulfonamide] reads 6.90; that for `CC(C)C[C@H](CO)Nc1nc(CC(C)c2cnc3c(c2)OCC(=O)N3C)nc(NS(C)(=O)=O)n1` (stereo partly drawn) [Example 125, N-(4-(((R)-1-Hydroxy-4-methylpentan-2-yl)amino)-6-(2-(4-methyl-3-oxo-3,4-dihydro-2H-pyrido[3,2-b][1,4]oxazin-7-yl)propyl)-1,3,5-triazin-2-yl)methanesulfonamide], 7.07; that for `CC(C)C[C@H](CO)Nc1nc(CC(C)c2ccc3c(=O)n(C)cnc3c2)nc(NS(C)(=O)=O)n1` (stereo partly drawn) [Example 126, N-(4-(((R)-1-Hydroxy-4-methylpentan-2-yl)amino)-6-(2-(3-methyl-4-oxo-3,4-dihydroquinazolin-7-yl)propyl)-1,3,5-triazin-2-yl)methanesulfonamide], 6.59.
The result for `CC(C)C[C@H](CO)Nc1nc(CC(C)c2ccc(OC(F)F)nc2)nc(NS(C)(=O)=O)n1` (stereo partly drawn) [Example 127, N-(4-(2-(6-(Difluoromethoxy)pyridin-3-yl)propyl)-6-(((R)-1-hydroxy-4-methylpentan-2-yl)amino)-1,3,5-triazin-2-yl)methanesulfonamide] reads 6.45; that for `CC(C)C[C@H](CO)Nc1nc(CC(C)c2ccc3c(c2)CC(=O)N(C)C3)nc(NS(C)(=O)=O)n1` (stereo partly drawn) [Example 128, N-(4-(((R)-1-Hydroxy-4-methylpentan-2-yl)amino)-6-(2-(2-methyl-3-oxo-1,2,3,4-tetrahydroisoquinolin-6-yl)propyl)-1,3,5-triazin-2-yl)methanesulfonamide], 6.62.
Regarding `CC(C)C[C@H](CO)Nc1nc(CC(C)c2ccc3c(c2)OCC(=O)N3C)nc(NS(C)(=O)=O)n1` (stereo partly drawn) [Example 129, N-(4-(((R)-1-Hydroxy-4-methylpentan-2-yl)amino)-6-(2-(4-methyl-3-oxo-3,4-dihydro-2H-benzo[b][1,4]oxazin-7-yl)propyl)-1,3,5-triazin-2-yl)methanesulfonamide], the pIC50 was 6.77.
Take `CC(C)C[C@H](CO)Nc1nc(CC(C)c2ccc3c(c2)CN(C)C(=O)C3)nc(NS(C)(=O)=O)n1` (stereo partly drawn) [Example 130, N-(4-(((R)-1-Hydroxy-4-methylpentan-2-yl)amino)-6-(2-(2-methyl-3-oxo-1,2,3,4-tetrahydroisoquinolin-7-yl)propyl)-1,3,5-triazin-2-yl)methanesulfonamide]: the pIC50 was 7.10.
For `Cc1ncc(C(C)Cc2nc(N[C@@H](CO)CC(C)C)nc(NS(C)(=O)=O)n2)cc1N` (stereo partly drawn) [Example 131, N-(4-(2-(5-Amino-6-methylpyridin-3-yl)propyl)-6-(((R)-1-hydroxy-4-methylpentan-2-yl)amino)-1,3,5-triazin-2-yl)methanesulfonamide] the value was 6.19.
As for `CC(C)C[C@H](CO)Nc1nc(CC(C)c2ccc(CCO)nc2)nc(NS(C)(=O)=O)n1` (stereo partly drawn) [Example 132, N-(4-(((R)-1-Hydroxy-4-methylpentan-2-yl)amino)-6-(2-(6-(2-hydroxyethyl)pyridin-3-yl)propyl)-1,3,5-triazin-2-yl)methanesulfonamide], the pIC50 is 6.58.

What is called pIC50 is the negative decadic logarithm of the IC50, by convention in mol/L. Low values mean a high IC50, high ones a low IC50.
